# Source: US10392366B2, “Azetidine compounds as GPR119 modulators for the treatment of diabetes, obesity, dyslipidemia and related disorders” (SANOFI, priority 2017, dated 2019)
# Biological target: T1, human GPR119 (Homo sapiens, UniProt Q8TDV5)
# T1 construct: expressed in transfected cells
# T1 sequence (Q8TDV5 1-335): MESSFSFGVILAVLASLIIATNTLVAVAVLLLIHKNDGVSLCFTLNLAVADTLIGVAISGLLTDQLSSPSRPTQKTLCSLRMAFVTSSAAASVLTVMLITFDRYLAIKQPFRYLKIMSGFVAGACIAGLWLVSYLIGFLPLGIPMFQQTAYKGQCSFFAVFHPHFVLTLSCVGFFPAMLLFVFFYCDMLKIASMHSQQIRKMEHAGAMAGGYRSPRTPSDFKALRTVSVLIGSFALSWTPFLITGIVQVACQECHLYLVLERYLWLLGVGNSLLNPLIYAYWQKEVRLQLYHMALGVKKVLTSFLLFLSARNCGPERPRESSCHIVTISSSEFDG
# Experiment: Functional cellular assay measuring GPR119-mediated cAMP release (HTRF) in HEK-293 cells stably expressing recombinant GPR119
# Assay type: cell-based
# Settings: cell line expressing human GPR119, 30 minutes at room temperature
# Method: Functional Cellular Assays Measuring GPR119-mediated cAMP Release
# Compounds of the present disclosure, which are agonists of GPR119, were characterized by functional assays measuring the cAMP response of HEK-293 cell lines stably expressing recombinant GPR119 from man, mouse or rat, or by using the hamster cell line HIT-T15 expressing GPR119 endogenously. The cAMP content was determined using a kit based on homogenous time-resolved fluorescence (HTRF) from Cisbio Corp. (cat. no. 62AM4PEC). For preparation, cells were split into T175 culture flasks and grown to near confluency in medium (DMEM/10% FCS for HEK-293 cells, and F-12K medium/10% horse serum/2.5% FCS for HIT-T15 cells, respectively). Medium was then removed and cells washed with PBS lacking calcium and magnesium ions, followed by proteinase treatment with accutase (Sigma-Aldrich, cat. no. A6964). Detached cells were washed and resuspended in assay buffer (1×HBSS; 20 mM HEPES, 0.1% BSA, 2 mM IBMX) and cellular density determined. They were then diluted to 400000 cells/mL and 25 μL-aliquots dispensed to the wells of 96-well plates. For measurement, 25 μL of test compound in assay buffer was added and incubated for 30 minutes at room temperature. After addition of HTRF reagents diluted in lysis buffer, the plates were incubated for 1 hour, followed by measuring the fluorescence ratio at 665 vs. 620 nm. Potency of the agonists was quantified by determining the concentrations that caused 50% of the maximal response/activation (EC50). See Table 6 for exemplary data obtained using the cell line expressing human GPR119.
row,EC50,Structure (SMILES)
1,991 nM,"C[S+]([O-])C1CN(c2ncc(N3CC[C@@H](Oc4ccc(C(=O)C5CC5)cc4)C3=O)cn2)C1 (single isomer, unassigned) [Compound 1-21]"
2,335 nM,"C[S+]([O-])C1CN(c2ncc(N3CC[C@@H](Oc4ccc(OCC(F)(F)F)nc4)C3=O)cn2)C1 (single isomer, unassigned) [Compound 1-24]"
3,292 nM,"C[S+]([O-])C1CN(c2ncc(N3CC[C@@H](Oc4ccc(OCC(F)(F)F)nc4)C3=O)cn2)C1 (single isomer, unassigned) [Compound 1-25]"
4,181 nM,"CC(C)[S+]([O-])C1CN(c2ncc(N3CC[C@@H](Oc4ccc(OCC(F)(F)F)nc4)C3=O)cn2)C1 (single isomer, unassigned) [Compound 1-35]"
5,158 nM,"CC(C)[S+]([O-])C1CN(c2ncc(N3CC[C@@H](Oc4ccc(OCC(F)(F)F)nc4)C3=O)cn2)C1 (single isomer, unassigned) [Compound 1-36]"
6,157 nM,"CN(C)C(=O)C1CN(c2ncc(N3CCC(Cc4ccc(OCC(F)(F)F)nc4)C3=O)cn2)C1 (single isomer, unassigned) [Compound 1-42]"
7,116 nM,"CS(=O)(=O)C1CN(c2ncc(N3CCC(Cc4ccc(OCC(F)(F)F)nc4)C3=O)cn2)C1 (single isomer, unassigned) [Compound 1-43]"
8,138 nM,"CS(=O)(=O)C1CN(c2ncc(N3CCC(Cc4ccc(OCC(F)(F)F)nc4)C3=O)cn2)C1 (single isomer, unassigned) [Compound 1-44]"
9,203 nM,"CN(C)C(=O)C1CN(c2ncc(N3CCC(Cc4ccc(OCC(F)(F)F)nc4)C3=O)cn2)C1 (single isomer, unassigned) [Compound 1-45]"
10,411 nM,"C[S+]([O-])C1CN(c2ncc(N3CCC(Cc4ccc(OCC(F)(F)F)nc4)C3=O)cn2)C1 (single isomer, unassigned) [Compound 1-46]"
11,1630 nM,"C[S+]([O-])C1CN(c2ncc(N3CCC(Cc4ccc(OCC(F)(F)F)nc4)C3=O)cn2)C1 (single isomer, unassigned) [Compound 1-47]"
12,872 nM,O=C1[C@H](Oc2ccc(OCC(F)(F)F)nc2)CCN1c1cnc(N2CC(O)C2)nc1 [Compound 1-22]
13,189 nM,CN(C)C(=O)C1CN(c2ncc(N3CC[C@@H](Oc4ccc(Oc5ccc(F)cc5)nc4)C3=O)cn2)C1 [Compound 1-23]
14,448 nM,O=C1[C@H](Oc2ccc(OCC(F)(F)F)nc2)CCN1c1cnc(N2CC3(CCNC3=O)C2)nc1 [Compound 1-26]
15,2210 nM,CS(=O)(=O)C1CN(c2ncc(N3CC[C@H](Oc4ccc(C(=O)C5CC5)cc4)C3=O)cn2)C1 [Compound 1-27]
16,290 nM,CN1CCC2(CN(c3ncc(N4CC[C@@H](Oc5ccc(OCC(F)(F)F)nc5)C4=O)cn3)C2)C1=O [Compound 1-28]
17,16 nM,CC(C)SC1CN(c2ncc(N3CC[C@@H](Oc4ccc(OCC(F)(F)F)nc4)C3=O)cn2)C1 [Compound 1-29]
18,334 nM,COC(=O)CC1CN(c2ncc(N3CC[C@@H](Oc4ccc(OCC(F)(F)F)nc4)C3=O)cn2)C1 [Compound 1-30]
19,129 nM,CN(C)C(=O)C1CN(c2ncc(N3CC[C@@H](Oc4ccc(OCC(F)(F)F)nc4)C3=O)cn2)C1 [Compound 1-31]
20,195 nM,CS(=O)(=O)C1CN(c2ncc(N3CCC(Cc4ccc(C(=O)C5CC5)cc4)C3=O)cn2)C1 (centres unmarked) [Compound 1-32]
21,664 nM,CS(=O)(=O)C1CN(c2ncc(N3CC[C@@H](Oc4ccc(C(=O)C5CC5)nc4)C3=O)cn2)C1 [Compound 1-33]
22,369 nM,O=C1[C@H](Oc2ccc(OCC(F)(F)F)nc2)CCN1c1cnc(N2CC(N3CCCC3=O)C2)nc1 [Compound 1-34]
23,71 nM,CC(C)S(=O)(=O)C1CN(c2ncc(N3CC[C@@H](Oc4ccc(OCC(F)(F)F)nc4)C3=O)cn2)C1 [Compound 1-37]
24,9840 nM,NC1CN(c2ncc(N3CC[C@@H](Oc4ccc(OCC(F)(F)F)nc4)C3=O)cn2)C1 [Compound 1-38]
25,179 nM,CS(=O)(=O)C1CN(c2ncc(N3CC[C@@H](Oc4ccc(C(=O)C5CC5)c(F)c4)C3=O)cn2)C1 [Compound 1-39]
26,1820 nM,C[S+]([O-])C1CN(c2ncc(N3CC[C@@H](Oc4ccc(C(=O)C5CC5)c(F)c4)C3=O)cn2)C1 (some centres unmarked) [Compound 1-40]
27,221 nM,CC(C)[S+]([O-])C1CN(c2ncc(N3CC[C@@H](Oc4ccc(C(=O)C5CC5)c(F)c4)C3=O)cn2)C1 (some centres unmarked) [Compound 1-41]

# More lines, now with the values behind:
row,Structure (SMILES),EC50
1,"C[S+]([O-])C1CN(c2ncc(N3CC[C@@H](Oc4ccc(C(=O)C5CC5)cc4)C3=O)cn2)C1 (single isomer, unassigned) [Compound 1-20]",1970 nM
2,N#Cc1cc(N2CC[C@@H](Oc3ccc(OCC4CC4)nc3)C2=O)cnc1N1CC(O)C1 [Compound 1-01],57 nM
3,O=C1[C@H](Oc2ccc(OCC3CC3)nc2)CCN1c1cnc(N2CC(O)C2)c(F)c1 [Compound 1-02],206 nM
4,N#Cc1cc(N2CC[C@@H](Oc3ccc(Oc4ccc(F)cc4)nc3)C2=O)cnc1N1CC(O)C1 [Compound 1-03],255 nM
5,CN(C)C(=O)C1CN(c2ncc(N3CC[C@@H](Oc4ccc(OCC5CC5)nc4)C3=O)cc2F)C1 [Compound 1-04],70 nM
6,CN(C)C(=O)C1CN(c2ncc(N3CC[C@@H](Oc4ccc(OCC5CC5)nc4)C3=O)cc2C#N)C1 [Compound 1-05],61 nM
7,CN(C)C(=O)C1CN(c2ccc(N3CC[C@@H](Oc4ccc(OCC5CC5)nc4)C3=O)cn2)C1 [Compound 1-06],170 nM
8,COC(=O)C1CN(c2ccc(N3CC[C@@H](Oc4ccc(OCC5CC5)nc4)C3=O)cn2)C1 [Compound 1-07],30 nM
9,CN(C)C(=O)C1CN(c2ncc(N3CC[C@@H](Oc4ccc(Oc5ccc(F)cc5)nc4)C3=O)cc2C#N)C1 [Compound 1-08],92 nM
10,CN(C)C(=O)C1CN(c2ncc(N3CC[C@@H](Oc4ccc(OCC(F)(F)F)nc4)C3=O)cc2C#N)C1 [Compound 1-09],64 nM
11,CN(C)C(=O)C1CN(c2ccc(N3CC[C@@H](Oc4ccc(OCC(F)(F)F)nc4)C3=O)cn2)C1 [Compound 1-10],44 nM
12,CN(C)C(=O)C1CN(c2ccc(N3CC[C@H](Oc4ccc(OCC(F)(F)F)nc4)C3=O)cn2)C1 [Compound 1-11],421 nM
13,CN(C)C(=O)C1CN(c2ncc(N3CC[C@@H](Oc4ccc(OCC(F)(F)F)nc4)C3=O)cn2)C1 [Compound 1-12],50 nM
14,CN(C)C(=O)C1CN(c2ncc(N3CC[C@H](Oc4ccc(OCC(F)(F)F)nc4)C3=O)cn2)C1 [Compound 1-13],257 nM
15,C[S+]([O-])C1CN(c2ncc(N3CC[C@@H](Oc4ccc(Oc5ccc(F)cc5)nc4)C3=O)cn2)C1 (some centres unmarked) [Compound 1-14],2070 nM
16,C[S+]([O-])C1CN(c2ncc(N3CC[C@@H](Oc4ccc(OCC(F)(F)F)nc4)C3=O)cn2)C1 (some centres unmarked) [Compound 1-15],248 nM
17,CS(=O)(=O)C1CN(c2ncc(N3CC[C@@H](Oc4ccc(OCC(F)(F)F)nc4)C3=O)cn2)C1 [Compound 1-16],58 nM
18,CS(=O)(=O)C1CN(c2ncc(N3CC[C@@H](Oc4ccc(C(=O)C5CC5)cc4)C3=O)cn2)C1 [Compound 1-17],122 nM
19,CS(=O)(=O)C1CN(c2ncc(N3CC[C@@H](Oc4ccc(Oc5ccc(F)cc5)nc4)C3=O)cn2)C1 [Compound 1-18],343 nM
20,CN(C)C(=O)C1CN(c2ncc(N3CC(C)(C)C(Oc4ccc(OCC(F)(F)F)cc4)C3=O)cn2)C1 (centres unmarked) [Compound 1-19],180 nM
